System: THP-1 Blue, Raw Blue, HEK-blue hTLR3, HEK-Blue hTLR4, HEK-Blue hNOD2
Assay: Innate immune response activation assays in TLR/NOD2 reporter cell lines
Assay type: cell-based
Details: 5 cell lines covering TLR and NOD2 expression; 3 PPQ lots; highest drug substance concentration tested 10 μg/mL
Method: Method development, qualification, and testing for activation of innate immune response was performed. The innate immune assays performed compared 3 PPQ lots. The work was conducted using 5 cell lines to cover TLR and NOD2 expression (THP-1 Blue, Raw Blue, HEK-blue hTLR3, HEK-Blue hTLR4, HEK-Blue hNOD2). […] The highest drug substance concentration tested was 10 μg/mL. A dose of the sterile preparation of purified corticotropin at 80 U is, equivalent to approximately 1 mg of drug substance per total body weight of subject.

CC(=O)N[C@@H]1[C@@H](O[C@H](C)C(=O)N[C@@H](C)C(=O)N[C@H](CCC(=O)O)C(N)=O)[C@H](O)[C@@H](CO)O[C@H]1O [MDP]
dose response for activation of innate immune response: robust dose responses

CCCc1nc2c(N)nc3ccccc3c2s1 [CL075]
dose response for activation of innate immune response: robust dose responses
